Data on 31 compounds can be found in patent US20240002391A1, “4-ALKOXYPYRROLO[2,1-F][1,2,4]TRIAZINES AND PREPARATION AND USES THEREOF” (BioSplice Therapeutics, Inc., priority 2022, published 2024).

For this experiment, the target named is recombinant DYRK1A kinase (Homo sapiens (Human), UniProt Q13627). As to the kind of experiment: DYRK1A kinase assay (Ser/Thr 18 peptide Z-lyte FRET). It is filed as biochemical. Conditions: DYRK1A kinase activity, Z-lyte Ser/Thr 18 peptide, 15 μM ATP; method text calls the value IC50; read-out: EC50 (the source's name). The method in brief:
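Kinase 0.25 μg/mL + ATP 15 μM + Ser/Thr 18 peptide 4 μM, 1 h RT with cpd (10 μM top, 1:3, 11 pts, n=2). Dev. reagent A 1 h RT. Ex 400, Em 455/520 ratio → % phos. → IC50, nonlinear fit.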
On to `COc1nc(NC2CCC3(CC2)COC3)nn2ccc(-c3ccc4ncccc4c3)c12` [Compound 326, 4-Methoxy-5-(quinolin-6-yl)-N-(2-oxaspiro[3.5]nonan-7-yl)pyrrolo[2,1-f][1,2,4]triazin-2-amine], for which the IC50 amounted to 7.3 nM.
For the compound `COc1nc(N[C@H]2C[C@H](C(C)(C)O)C2)nn2ccc(-c3ccc4nccnc4c3)c12` [Compound 328, 2-(trans-3-((4-Methoxy-5-(quinoxalin-6-yl)pyrrolo[2,1-f][1,2,4]triazin-2-yl)amino)cyclobutyl)propan-2-ol], the IC50 is 5.4 nM.
On to `COc1nc(N[C@H]2C[C@@H](OCCO)C2)nn2ccc(-c3ccc4nccnc4c3)c12` [Compound 329, 2-(cis-3-((4-Methoxy-5-(quinoxalin-6-yl)pyrrolo[2,1-f][1,2,4]triazin-2-yl)amino)cyclobutoxy)ethan-1-ol], for which the IC50 amounted to 1.9 nM.
For the compound `COc1nc(N[C@H]2C[C@](C)(O)C2)nn2ccc(-c3ccc4nccnc4c3)c12` [Compound 330, trans-3-((4-Methoxy-5-(quinoxalin-6-yl)pyrrolo[2,1-f][1,2,4]triazin-2-yl)amino)-1-methylcyclobutan-1-ol], the IC50 came to 2.3 nM.
With `[2H]C([2H])([2H])Oc1nc(N[C@H]2C[C@](C)(O)C2)nn2ccc(-c3ccc4nccnc4c3)c12` [Compound 331, trans-3-((4-(Methoxy-d3)-5-(quinoxalin-6-yl)pyrrolo[2,1-f][1,2,4]triazin-2-yl)amino)-1-methylcyclobutan-1-ol], the IC50 worked out at 1.2 nM.
To `COc1nc(N[C@H]2C[C@@](C)(N)C2)nn2ccc(-c3ccc4nccnc4c3)c12` [Compound 332, cis-N1-(4-Methoxy-5-(quinoxalin-6-yl)pyrrolo[2,1-f][1,2,4]triazin-2-yl)-3-methylcyclobutane-1,3-diamine] belongs 2.8 nM; to `COc1nc(N[C@H]2C[C@@](C)(NC(C)=O)C2)nn2ccc(-c3ccc4nccnc4c3)c12` [Compound 333, N-(cis-3-((4-Methoxy-5-(quinoxalin-6-yl)pyrrolo[2,1-f][1,2,4]triazin-2-yl)amino)-1-methylcyclobutyl)acetamide], 1.1 nM.
For the compound `COc1nc(N[C@H]2C[C@](C)(NC(C)=O)C2)nn2ccc(-c3ccc4nccnc4c3)c12` [Compound 334, N-(trans-3-((4-Methoxy-5-(quinoxalin-6-yl)pyrrolo[2,1-f][1,2,4]triazin-2-yl)amino)-1-methylcyclobutyl)acetamide], the IC50 was found to be 0.9 nM.
Regarding `CCC(=O)N[C@]1(C)C[C@H](Nc2nc(OC)c3c(-c4ccc5nccnc5c4)ccn3n2)C1` [Compound 335, N-(cis-3-((4-Methoxy-5-(quinoxalin-6-yl)pyrrolo[2,1-f][1,2,4]triazin-2-yl)amino)-1-methylcyclobutyl)propionamide], the IC50 is 2 nM.
With `COCC(=O)N[C@]1(C)C[C@H](Nc2nc(OC)c3c(-c4ccc5nccnc5c4)ccn3n2)C1` [Compound 336, 2-Methoxy-N-(cis-3-((4-methoxy-5-(quinoxalin-6-yl)pyrrolo[2,1-f][1,2,4]triazin-2-yl)amino)-1-methylcyclobutyl)acetamide], the IC50 turned out to be 1.3 nM.
In the case of `COc1nc(N[C@H]2C[C@@](C)(NC(=O)OC(C)(C)C)C2)nn2ccc(-c3ccc4nccnc4c3)c12` [Compound 337, tert-Butyl (cis-3-((4-methoxy-5-(quinoxalin-6-yl)pyrrolo[2,1-f][1,2,4]triazin-2-yl)amino)-1-methylcyclobutyl)carbamate], the IC50 is 11.5 nM.
Turning to `CNC(=O)[C@]1(C)C[C@@H](Nc2nc(OC)c3c(-c4ccc5nccnc5c4)ccn3n2)C1` [Compound 338, trans-3-((4-Methoxy-5-(quinoxalin-6-yl)pyrrolo[2,1-f][1,2,4]triazin-2-yl)amino)-N,1-dimethylcyclobutane-1-carboxamide], the IC50 was 1.2 nM.
As for `COc1nc(N[C@H]2C[C@](C)(C(=O)N(C)C)C2)nn2ccc(-c3ccc4nccnc4c3)c12` [Compound 339, trans-3-((4-Methoxy-5-(quinoxalin-6-yl)pyrrolo[2,1-f][1,2,4]triazin-2-yl)amino)-N,N,1-trimethylcyclobutane-1-carboxamide], the IC50 worked out at 4.8 nM.
Consider `COc1nc(N[C@H]2CC[C@@H](C(C)(C)O)CC2)nn2ccc(-c3ccc4nccnc4c3)c12` [Compound 341, 2-(cis-4-((4-methoxy-5-(quinoxalin-6-yl)pyrrolo[2,1-f][1,2,4]triazin-2-yl)amino)cyclohexyl)propan-2-ol], for which the IC50 stood at 9.3 nM.
As for `COc1nc(N[C@H]2CC[C@H](C(C)(C)O)CC2)nn2ccc(-c3ccc4nccnc4c3)c12` [Compound 342, 2-(trans-4-((4-Methoxy-5-(quinoxalin-6-yl)pyrrolo[2,1-f][1,2,4]triazin-2-yl)amino)cyclohexyl)propan-2-ol], the IC50 turned out to be 3.2 nM.
As to `COc1nc(N[C@H]2CC[C@@H](OCCO)CC2)nn2ccc(-c3ccc4nccnc4c3)c12` [Compound 343, 2-((cis-4-((4-Methoxy-5-(quinoxalin-6-yl)pyrrolo[2,1-f][1,2,4]triazin-2-yl)amino)cyclohexyl)oxy)ethan-1-ol], the IC50 turned out to be 0.7 nM.
As for `COc1nc(N[C@H]2CC[C@H](NC(C)=O)CC2)nn2ccc(-c3ccc4nccnc4c3)c12` [Compound 344, N-(trans-4-((4-Methoxy-5-(quinoxalin-6-yl)pyrrolo[2,1-f][1,2,4]triazin-2-yl)amino)cyclohexyl)acetamide], the IC50 came to 1.8 nM.
To `COc1nc(N[C@H]2CC[C@@](C)(O)CC2)nn2ccc(-c3ccc4nccnc4c3)c12` [Compound 345, cis-4-((4-Methoxy-5-(quinoxalin-6-yl)pyrrolo[2,1-f][1,2,4]triazin-2-yl)amino)-1-methylcyclohexan-1-ol] belongs 3.7 nM; to `C[C@]1(O)CC[C@H](Nc2nc(O)c3c(-c4ccc5nccnc5c4)ccn3n2)CC1` [Compound 346, 2-((trans-4-Hydroxy-4-methylcyclohexyl)amino)-5-(quinoxalin-6-yl)pyrrolo[2,1-f][11,2,4]triazin-4-ol], 34.4 nM; to `COc1nc(N[C@H]2CC[C@](C)(O)CC2)nn2ccc(-c3ccc4nccnc4c3)c12` [Compound 347, trans-4-((4-Methoxy-5-(quinoxalin-6-yl)pyrrolo[2,1-f][1,2,4]triazin-2-yl)amino)-1-methylcyclohexan-1-ol], 1.7 nM.
As to `[2H]C([2H])([2H])Oc1nc(N[C@H]2CC[C@](C)(O)CC2)nn2ccc(-c3ccc4nccnc4c3)c12` [Compound 348, trans-4-((4-(Methoxy-d3)-5-(quinoxalin-6-yl)pyrrolo[2,1-f][1,2,4]triazin-2-yl)amino)-1-methylcyclohexan-1-ol], the IC50 was found to be 2.3 nM.
`COc1nc(N[C@H]2CC[C@@](O)(C(F)(F)F)CC2)nn2ccc(-c3ccc4nccnc4c3)c12` [Compound 349, trans-4-((4-Methoxy-5-(quinoxalin-6-yl)pyrrolo[2,1-f][1,2,4]triazin-2-yl)amino)-1-(trifluoromethyl)cyclohexan-1-ol]: the IC50 was 6.6 nM.
With `COc1nc(N[C@@H]2CN(C)C[C@@H]2F)nn2ccc(-c3ccc4nccnc4c3)c12` [Compound 350, N-((3R,4S)-4-Fluoro-1-methylpyrrolidin-3-yl)-4-methoxy-5-(quinoxalin-6-yl)pyrrolo[2,1-f][1,2,4]triazin-2-amine] the figure was 1.4 nM.
Regarding `COc1nc(N[C@H]2CN(C)C[C@H]2F)nn2ccc(-c3ccc4nccnc4c3)c12` [Compound 351, N-((3S,4R)-4-Fluoro-1-methylpyrrolidin-3-yl)-4-methoxy-5-(quinoxalin-6-yl)pyrrolo[2,1-f][1,2,4]triazin-2-amine], the IC50 came to 8.1 nM.
For `[2H]C([2H])([2H])Oc1nc(N[C@@H]2CN(C(C)=O)C[C@@H]2F)nn2ccc(-c3ccc4nccnc4c3)c12` [Compound 353, 1-((3S,4R)-3-Fluoro-4-((4-(methoxy-d3)-5-(quinoxalin-6-yl)pyrrolo[2,1-f][1,2,4]triazin-2-yl)amino)pyrrolidin-1-yl)ethan-1-one], the IC50 worked out at 2.2 nM.
Turning to `COc1nc(N[C@@H]2CN(C3COC3)C[C@@H]2F)nn2ccc(-c3ccc4nccnc4c3)c12` [Compound 355, N-((3R,4S)-4-Fluoro-1-(oxetan-3-yl)pyrrolidin-3-yl)-4-methoxy-5-(quinoxalin-6-yl)pyrrolo[2,1-f][1,2,4]triazin-2-amine], the IC50 was found to be 2.7 nM.
On to `COc1nc(N[C@H]2CN(C3COC3)C[C@H]2F)nn2ccc(-c3ccc4nccnc4c3)c12` [Compound 356, N-((3S,4R)-4-Fluoro-1-(oxetan-3-yl)pyrrolidin-3-yl)-4-methoxy-5-(quinoxalin-6-yl)pyrrolo[2,1-f][1,2,4]triazin-2-amine], for which the IC50 was found to be 8.8 nM.
Take `COc1nc(NC2CCN(CC(F)F)CC2)nn2ccc(-c3ccc4nccnc4c3)c12` [Compound 362, N-(1-(2,2-Difluoroethyl)piperidin-4-yl)-4-methoxy-5-(quinoxalin-6-yl)pyrrolo[2,1-f][1,2,4]triazin-2-amine]: the IC50 turned out to be 6 nM.
Turning to `COc1nc(NC2CCN(CC(F)(F)F)CC2)nn2ccc(-c3ccc4nccnc4c3)c12` [Compound 363, 4-Methoxy-5-(quinoxalin-6-yl)-N-(1-(2,2,2-trifluoroethyl)piperidin-4-yl)pyrrolo[2,1-f][1,2,4]triazin-2-amine], the IC50 stood at 40.1 nM.
To `COc1nc(NC2CCN(C3COC3)CC2)nn2ccc(-c3ccc4nccnc4c3)c12` [Compound 365, 4-Methoxy-N-(1-(oxetan-3-yl)piperidin-4-yl)-5-(quinoxalin-6-yl)pyrrolo[2,1-f][1,2,4]triazin-2-amine] belongs 2.8 nM.
In the case of `COc1nc(NC2CCOCC2)nn2ccc(-c3ccc4nccnc4c3)c12` [Compound 366, 4-Methoxy-5-(quinoxalin-6-yl)-N-(tetrahydro-2H-pyran-4-yl)pyrrolo[2,1-f][1,2,4]triazin-2-amine], the IC50 was found to be 2.5 nM.
